According to patent US9108947B2, “Inhibitors of the Renal Outer Medullary Potassium channel” (Merck Sharp & Dohme Corp., priority 2011, dated 2015):
Read-outs that look alike come from different tables or passages of the source.

Legend:
hROMK (hKir1.1) = hROMK (hKir1.1) (Homo sapiens (Human), UniProt P48048); assay: Thallium Flux Assay (ROMK channel functional thallium flux, FLIPR-Tetra); assay type: cell-based; conditions: HEK293 cells stably expressing hROMK (hKir1.1); 30 min compound incubation
Description: (§1) Several assays may be used to measure functional inhibition of the ROMK channel by compounds of the instant invention. One assay that can be used is an electrophysiology assay that measures the electrical current that is generated as potassium permeates through the channel. Another ROMK functional assay makes use of the ability of thallium to permeate through open ROMK channels and increase the fluorescence of a dye previously loaded into the cells. Under control conditions, cells loaded with dye and exposed to thallium-containing medium display a time-dependent increase in fluorescence, the rate of which depends on number of functional channels. When cells are incubated in the presence of a channel inhibitor, the increase in fluorescence is attenuated in a concentration-dependent manner, and IC50 values of inhibition by compounds can be accurately determined. This assay has been established with cell lines expressing either human, or rat ROMK channels, and operates in 384-well format.
HEK293 cells stably expressing hROMK (hKir1.1) were grown at 37° C. in a 10% CO2 humidified incubator in complete growth media: Dulbecco's Modified Eagle Medium supplemented with non-essential amino acids, Penicillin/Streptomycin/Glutamine, G418 and FBS. At >80% confluency, the media was aspirated from the flask and the sample was rinsed with 10 ml Calcium/Magnesium-free PBS. […] To dislodge the cell, the side of the flask was gently banged with a hand. The cells were triturated completely and then transferred to 25 ml complete media. The sample was then centrifuged at 1,500 rpm for 6 minutes, followed by resuspension in complete growth media and then cell concentration was determined. […] Under ideal growth conditions and appropriate tissue culture practices, this cell line is stable for 40-45 passages.
• FluxOR™ Reagent (Component A) • FluxOR™ Assay Buffer (Component B)—10× Concentrate • PowerLoad™ Concentrate (Component C)—100× Concentrate • Probenecid (Component D) Lyophilized sample is kept at −20° C. Water soluble, 100× after solubilization in 1 ml water. […] Store at 4° C. • Thallium sulfate (Tl2SO4) Concentrate (Component G)—50 mM in water. […] Can be stored at room temperature • Stimulant Buffer (prepared at 5× final concentration in 1× FluxOR™Chloride-Free Buffer): 7.5 mM Thallium sulfate and 0.75 mM Potassium sulfate (to give a final assay concentration of 3 mM Thallium 0.3 mM Potassium). Store at 4° C. when not in use. If kept sterile, this solution is good for months. Assay Protocol—
The ROMK channel functional thallium flux assay is performed in 384 wells, using the FLIPR-Tetra instrument. HEK-hKir1.1 cells are seeded in Poly-D-Lysine microplates and kept in a 37° C.-10% CO2 incubator overnight. On the day of the experiment, the growth media is replaced with the FluxOR™ reagent loading buffer and incubated, protected from light, at ambient temperature (23-25° C.) for 90 min. The loading buffer is replaced with assay buffer±test compound followed by 30 min incubation at ambient temperature, where the Thallium/Potassium stimulant is added to the microplate.
• 1. Seed HEK-hKir1.1 cells (50 μl at 20,000 cells/well) in 384-well PDL coated Microplates • 2. Allow cells to adhere overnight in humidified 37° C./10% CO2 incubator • 3. Completely remove cell growth media from microplate and replace with 25 μl loading buffer • 4. Incubate Microplate at room temperature, protected form light, for 90 min • 5. Remove loading buffer and replace with 25 μl 1× Assay Buffer±test compound. • 6. Incubate microplate at room temperature, protected form light, for 30 min • 7. […] Excitation=400 nm, Emission=460 & 580 nm. Collect data for 10 min. Data Calculation—
The fluorescence intensity of wells containing 3 μM of a standard control ROMK inhibitor of the present invention is used to define the ROMK-sensitive component of thallium flux. Fluorescence in the presence of test compounds is normalized to control values to provide % fluorescence change.

Kir1.1 (ROMK1) = Kir1.1 (ROMK1) (Homo sapiens (Human), UniProt P48048); assay: Electrophysiology Assay (whole cell voltage clamp, IonWorks Quattro); assay type: cell-based
Description: as §1
Chinese hamster ovary cells stably expressing Kir1.1 channels were maintained in T-75 flasks in cell culture media in a humidified 10% CO2 incubator at 37° C. Prior to an experiment, Kir1.1 expression was induced by overnight incubation with 1 mM sodium butyrate. […] After centrifugation, the cell pellet was resuspended in approximately 4.0 ml of bath solution and placed in the IonWorks® instrument. The intracellular solution consisted of (in mM): 80 K gluconate, 40 KCl, 20 KF, 3.2 MgCl2, 3 EGTA, 5 Hepes, pH 7.4. Electrical access to the cytoplasm was achieved by perforation in 0.13 mg/ml amphotericin B for 4 minutes.
Voltage protocols and current recordings were performed using the IonWorks® HT software/hardware system. Currents were sampled at 1 kHz. No correction for liquid junction potentials was used. The test pulse, consisting of a 100 ms step to 0 mV from a holding potential of −70 mV, followed by a 100 ms voltage ramp from −70 mV to +70 mV, was applied before and after a 6 minutes compound incubation period. Test compounds were prepared by diluting DMSO stock solutions into the bath solution at 3× the final concentration and placed in the instrument in 96-well polypropylene plates. Current amplitudes were measured using the IonWorks® software.

[1] = Chinese hamster ovary cells stably expressing Kir1.1, block during voltage step to 0 mV, 6 minutes compound incubation, read-out: EP Assay IC50

Kir1.1 (ROMK1), sequence (P48048 whole entry, species assumed): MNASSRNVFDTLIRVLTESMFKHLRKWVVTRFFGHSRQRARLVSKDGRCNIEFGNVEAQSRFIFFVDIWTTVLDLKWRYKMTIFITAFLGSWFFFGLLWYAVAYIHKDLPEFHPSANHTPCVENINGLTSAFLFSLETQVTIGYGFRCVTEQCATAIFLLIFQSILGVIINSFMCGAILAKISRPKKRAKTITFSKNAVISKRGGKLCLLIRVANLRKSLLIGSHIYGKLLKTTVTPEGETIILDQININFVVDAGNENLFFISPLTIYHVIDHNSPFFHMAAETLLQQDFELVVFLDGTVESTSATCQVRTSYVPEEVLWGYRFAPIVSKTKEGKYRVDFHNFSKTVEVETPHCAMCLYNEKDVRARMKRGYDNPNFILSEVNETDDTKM
hROMK (hKir1.1), sequence (P48048 whole entry): as the sequence (P48048 whole entry, species assumed) above

Compound	IC50 (hROMK (hKir1.1)) [nM]	IC50 (Kir1.1 (ROMK1); [1]) [nM]	IC50 (Kir1.1 (ROMK1)) [nM]
Cc1c([C@@H](O)CN2CC(CNS(=O)(=O)Cc3ccc(C#N)cc3)C2)ccc2c1COC2=O [Example 16, (R)-1-(4-Cyanophenyl)-N-((1-(2-hydroxy-2-(4-methyl-1-oxo-1,3-dihydroisobenzofuran-5-yl)ethyl)azetidin-3-yl)methyl)methanesulfonamide]	1040		
Cc1c([C@@H](O)CNC2C[C@H]3C[C@@H]2N(C[C@H](O)c2ccc4c(c2C)COC4=O)C3)ccc2c1COC2=O (single isomer, unassigned) [Example 17B]	581		
Cc1c([C@@H](O)CN2CC[C@@H](NCC(O)c3ccc(C#N)cn3)C2)ccc2c1COC2=O (stereo partly drawn) [Example 10, 6-(1-Hydroxy-2-((R)-1-((R)-2-hydroxy-2-(4-methyl-1-oxo-1,3-dihydroisobenzofuran-5-yl)ethyl)pyrrolidin-3-ylamino)ethyl)nicotinonitrile]	504	2060	
Cc1c([C@@H](O)CN2CCC(C)(CNc3ccc(C#N)cn3)C2)ccc2c1COC2=O (stereo partly drawn) [Example 21, 6-((1-((R)-2-Hydroxy-2-(4-methyl-1-oxo-1,3-dihydroisobenzofuran-5-yl)ethyl)-3-methylpyrrolidin-3-yl)methylamino)nicotinonitrile]	547	103	
Cc1c([C@@H](O)CN[C@@H]2CCN(CC(O)c3ccc(C#N)cn3)C2)ccc2c1COC2=O (stereo partly drawn) [Example 12, 6-(1-Hydroxy-2-((R)-3-((R)-2-hydroxy-2-(4-methyl-1-oxo-1,3-dihydroisobenzofuran-5-yl)ethylamino)pyrrolidin-1-yl)ethyl)nicotinonitrile]	542	1370	
Cc1c([C@@H](O)CN2CCC(CNc3ccc(C#N)cn3)(c3ccccc3)C2)ccc2c1COC2=O (stereo partly drawn) [Example 22, 6-((1-((R)-2-Hydroxy-2-(4-methyl-1-oxo-1,3-dihydroisobenzofuran-5-yl)ethyl)-3-phenylpyrrolidin-3-yl)methylamino)nicotinonitrile]	808	340	
Cc1c([C@@H](O)CN2CCC(C3(Nc4nccn5cnnc45)CCC3)C2)ccc2c1COC2=O (stereo partly drawn) [Example 23, 5-((1R)-2-(3-(1-([1,2,4]Triazolo[4,3-a]pyrazin-8-ylamino)cyclobutyl)pyrrolidin-1-yl)-1-hydroxyethyl)-4-methylisobenzofuran-1(3H)-one]	401		
Cc1c([C@@H](O)CNC2CCCN(c3ccc(C#N)cn3)C2)ccc2c1COC2=O (stereo partly drawn) [Example 20, 6-(3-((R)-2-Hydroxy-2-(4-methyl-1-oxo-1,3-dihydroisobenzofuran-5-yl)ethylamino)piperidin-1-yl)nicotinonitrile]	265		52
Cc1c([C@@H](O)CN2CCCCC2CNCC(O)c2ccc(C#N)cn2)ccc2c1COC2=O (stereo partly drawn) [Example 13, 6-{1-Hydroxy-2-[({1-[(2R)-2-hydroxy-2-(4-methyl-1-oxo-1,3-dihydro-2-benzofuran-5-yl)ethyl]piperidin-2-yl}methyl)amino]ethyl}pyridine-3-carbonitrile]	162	269	
Cc1c([C@@H](O)CN2CCC(CNc3nccn4cnnc34)(c3ccccc3)C2)ccc2c1COC2=O (stereo partly drawn) [Example 24, 5-((1R)-2-(3-(([1,2,4]Triazolo[4,3-a]pyrazin-8-ylamino)methyl)-3-phenylpyrrolidin-1-yl)-1-hydroxyethyl)-4-methylisobenzofuran-1(3H)-one]	893		
Cc1c([C@@H](O)CN2CCCC2CNCC(O)c2ccc(C#N)cn2)ccc2c1COC2=O (single isomer, unassigned) [Example 9B]	290	254	
Cc1c([C@@H](O)CN2CCCC2CNS(=O)(=O)c2ccc(-n3cnnn3)cc2)ccc2c1COC2=O (stereo partly drawn) [Example 19, N-((1-((R)-2-Hydroxy-2-(4-methyl-1-oxo-1,3-dihydroisobenzofuran-5-yl)ethyl)pyrrolidin-2-yl)methyl)-4-(1H-tetrazol-1-yl)benzenesulfonamide]	206	245	
Cc1c([C@@H](O)CNCC2(C)CCCN(C[C@H](O)c3ccc4c(c3C)COC4=O)C2)ccc2c1COC2=O (stereo partly drawn) [Example 8, 5-{(1R)-1-Hydroxy-2-[3-({[(2R)-2-hydroxy-2-(4-methyl-1-oxo-1,3-dihydro-2-benzofuran-5-yl)ethyl]amino}methyl)-3-methylpiperidin-1-yl]ethyl}-4-methyl-2-benzofuran-1(3H)-one]	847		
Cc1c([C@@H](O)CNCC2CCCN2C[C@H](O)c2ccc3c(c2C)COC3=O)ccc2c1COC2=O (stereo partly drawn) [Example 3, 5-{(1R)-1-Hydroxy-2-[2-({[(2R)-2-hydroxy-2-(4-methyl-1-oxo-1,3-dihydro-2-benzofuran-5-yl)ethyl]amino}methyl)pyrrolidin-1-yl]ethyl}-4-methyl-2-benzofuran-1(3H)-one]	176	510	
Cc1c([C@@H](O)CN2CCCC2CNc2ccc(C#N)cn2)ccc2c1COC2=O (stereo partly drawn) [Example 18]	534	65	
Cc1c(C(CO)NCC2CCCCN2C[C@H](O)c2ccc3c(c2C)COC3=O)ccc2c1COC2=O (stereo partly drawn) [Example 6, 5-{(1R)-1-Hydroxy-2-[2-({[2-hydroxy-1-(4-methyl-1-oxo-1,3-dihydro-2-benzofuran-5-yl)ethyl]amino}methyl)piperidin-1-yl]ethyl}-4-methyl-2-benzofuran-1(3H)-one]	143	446	
Cc1c([C@@H](O)CNCC2(C)CCN(C[C@H](O)c3ccc4c(c3C)COC4=O)C2)ccc2c1COC2=O (stereo partly drawn) [Example 7, 5-{(1R)-1-Hydroxy-2-[3-({[(2R)-2-hydroxy-2-(4-methyl-1-oxo-1,3-dihydro-2-benzofuran-5-yl)ethyl]amino}methyl)-3-methylpyrrolidin-1-yl]ethyl}-4-methyl-2-benzofuran-1(3H)-one]	277		
Cc1c([C@@H](O)CN2CC[C@H](NCC(O)c3ccc(C#N)cn3)C2)ccc2c1COC2=O (stereo partly drawn) [Example 11, 6-(1-Hydroxy-2-((S)-1-((R)-2-hydroxy-2-(4-methyl-1-oxo-1,3-dihydroisobenzofuran-5-yl)ethyl)pyrrolidin-3-ylamino)ethyl)nicotinonitrile]	648		
Cc1c([C@@H](O)CNCC2CCCCN2C[C@H](O)c2ccc3c(c2C)COC3=O)ccc2c1COC2=O (stereo partly drawn) [Example 5, 5-{(1R)-1-Hydroxy-2-[2-({[(2R)-2-hydroxy-2-(4-methyl-1-oxo-1,3-dihydro-2-benzofuran-5-yl)ethyl]amino}methyl)piperidin-1-yl]ethyl}-4-methyl-2-benzofuran-1(3H)-one]	82		
